This note sets out measurements from PubChem BioAssay (NCI).

Assay in all cases: NCI tumour cell line growth inhibition, 48 h
Assay [1] concerns MCF7 breast.
The subject of assay [2] is SN12C renal.
Assay [3] relates to HOP-62 NSCLC.
Assay [4] has as its system T-47D breast.
The subject of assay [5] is HL-60(TB) leukemia.
Assay [6] deals with RXF 393 renal.
The subject of assay [7] is SNB-19 CNS.
Assay [8] concerns NCI-H23 lung.
Assay [9] has as its system SK-MEL-5 melanoma.
For assay [10], the system named is K-562 leukemia.

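Five concentrations, 48 hours, 96-well plates. GI50: concentration for 50% inhibition of growth. TGI: total growth inhibition.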 Where only a bound is given, the exact number is not on record here.

With `Nc1cc(S(N)(=O)=O)ccc1SSc1ccc(S(N)(=O)=O)cc1N`, the TGI in assay [1], in [2], in assay [3], in [4], in [5] and in assay [6] was more than 100 µM throughout. Moreover, the TGI in assay [7], in assay [8], in [9] and in [10] was more than 100 µM throughout.
In the case of `CCN(CC)CCn1c2ccc(OC)cc2c2sc3cc(OC)ccc3c(=O)c21`, the GI50 in [1] is 1.16 µM; in assay [2] it was 2.03 µM; in assay [3], 2.32 µM; in assay [4] it was 2 µM; in assay [5], 1.77 µM; in assay [6], 1.4 µM. The GI50 in [7] was 2.43 µM; in assay [8], 1.9 µM; in [9] it was 1.74 µM; in assay [10] it was 0.728 µM. Also, the TGI came to 2.45 µM in assay [1]; 8.75 µM in assay [2]; 8.62 µM in [3]; 4.89 µM in assay [4]; 4.22 µM in [5]; 2.79 µM in assay [6]. Further, the TGI in assay [7] amounted to 10 µM; in assay [8] it was 4.34 µM; in assay [9] it was 3.12 µM; in assay [10], 2.76 µM.
For `O=C(COc1cccc(/C=C2\Oc3ccc4ccccc4c3C2=O)c1)c1ccc(Cl)cc1`, the GI50 is 10.7 µM in assay [1]; 16.8 µM in [2]; 7.09 µM in assay [3]; 15.3 µM in assay [4]; 16.1 µM in assay [5]; 25 µM in [6]. The GI50 in [7] is more than 100 µM; in assay [8], 30.5 µM; in assay [9], 79.2 µM; in [10] it was 10.8 µM. Also, the TGI is 22.6 µM in [1]; 37.5 µM in assay [2]; 32.4 µM in assay [3]; 52.4 µM in assay [4]; 90.9 µM in [5]; 61.6 µM in [6]. Moreover, the TGI in assay [7] was more than 100 µM; in assay [8], more than 100 µM; in assay [9] it was more than 100 µM; in [10], 25.5 µM.
For `C[C@@H](COCCC(=O)N1CCN(c2ncc(C(F)(F)F)cn2)CC1)Nc1cn[nH]c(=O)c1C(F)(F)F`, the GI50 in [1] was 31.2 µM; in assay [2] it was 31.1 µM; in assay [3], 23.6 µM; in assay [4], 33.1 µM; in assay [5], 16.1 µM; in [6], 32.8 µM. The GI50 in [7] is 34.2 µM; in assay [8] it was 28.3 µM; in assay [9] it was 42.3 µM; in assay [10] it was 36.9 µM. For the same molecule, the TGI in assay [1], in assay [2], in assay [3], in assay [4], in assay [5] and in assay [6] was more than 100 µM each time. Besides, the TGI in [7], in [8], in assay [9] and in assay [10] was more than 100 µM in each case.
Consider `COc1cc2c3c(n(CCCBr)c(=O)c2cc1OC)-c1ccc(F)cc1C3=O`, for which the GI50 was 4.1 µM in assay [1]; 15.6 µM in [2]; 4.21 µM in assay [3]; 4.86 µM in [4]; 24.8 µM in [5]; 34.4 µM in [6]. The GI50 in [7] is 6.34 µM; in [8] it was 17.8 µM; in [9], 10.9 µM; in assay [10] it was 16.3 µM. Further, the TGI in assay [1] is more than 100 µM; in [2] it was more than 100 µM; in assay [3] it was 25 µM; in assay [4], 62 µM; in assay [5] it was more than 100 µM; in assay [6], more than 100 µM. The TGI in [7] is more than 100 µM; in assay [8], 76.4 µM; in assay [9], 24.1 µM; in [10], more than 100 µM.
Consider `COc1cccc(CCC(=O)c2cc3c(N)c(C(=O)Nc4cccc(Cl)c4C)sc3nc2C)c1`, for which the GI50 in [1] was 0.336 µM; in [2], 0.667 µM; in assay [3], 1.1 µM; in [4], 0.588 µM; in assay [5], 0.543 µM; in [6], 0.393 µM. The GI50 in [7] was 0.523 µM; in assay [8], 2.35 µM; in [9], 0.65 µM; in [10], 0.396 µM. Further, the TGI in assay [1] is more than 100 µM; in assay [2] it was more than 100 µM; in [3] it was more than 100 µM; in assay [4], more than 100 µM; in assay [5] it was more than 100 µM; in [6], 2.95 µM. The TGI in [7] is more than 100 µM; in assay [8], more than 100 µM; in assay [9], 11 µM; in assay [10] it was more than 100 µM.
In the case of `FC(F)(F)c1cccc2c(SCCc3n[nH]c(=S)o3)ccnc12`, the GI50 is 41.6 µM in [1]; 51.4 µM in assay [2]; 94.2 µM in [3]; 29.3 µM in [4]; 67.8 µM in [5]; 57 µM in [6]. The GI50 is 54.2 µM in assay [7], 40 µM in assay [8], 19.5 µM in [9] and 47.4 µM in [10]. In addition, the TGI was more than 100 µM in assay [1]; more than 100 µM in [2]; more than 100 µM in assay [3]; 93.3 µM in [4]; more than 100 µM in [5]; more than 100 µM in assay [6]. In addition, the TGI is more than 100 µM in assay [7], more than 100 µM in assay [8], 44.1 µM in assay [9] and more than 100 µM in assay [10].
As for `O=C1c2ccccc2-c2c1c1ccc([N+](=O)[O-])cc1c(=O)n2CCCNCCO`, the TGI in assay [1] came to 1.31 µM; in assay [2] it was 2.07 µM; in [3], 0.544 µM; in assay [4], 1.71 µM; in [5] it was 1.52 µM; in [6], 3.88 µM. The TGI in [7] turned out to be 1.82 µM; in [8] it was 0.713 µM; in assay [9] it was 0.349 µM; in [10], 1.24 µM. Further, the GI50 in assay [2] was 0.287 µM; in [3] it was 0.0408 µM; in assay [4] it was 0.042 µM; in assay [5], 0.242 µM; in assay [6], 1.87 µM; in [7], 0.107 µM. The GI50 in [8] was 0.115 µM; in assay [9], 0.0875 µM; in assay [10], 0.0359 µM.
On to `CNC1=C(C(=O)OC)SC(c2ccccc2)(c2ccccc2)SC1`, for which the GI50 in assay [1] was 11.6 µM; in [2], 24 µM; in assay [3] it was 39.4 µM; in assay [4], 34.6 µM; in [5], 12 µM; in [6] it was 22 µM. The GI50 in assay [7] is 52.8 µM; in assay [8] it was 17.5 µM; in assay [9], 19.5 µM; in assay [10], 4.73 µM. The TGI in assay [1] was more than 100 µM; in assay [2], more than 100 µM; in [3] it was more than 100 µM; in assay [4], more than 100 µM; in assay [5] it was 58.2 µM; in [6], more than 100 µM. Further, the TGI in assay [7], in assay [8], in [9] and in assay [10] was more than 100 µM in each case.
`O=C(CNc1ccc2c(=S)c3ccccc3[nH]c2c1)Nc1ccccc1-c1ccccc1NC(=O)CNc1ccc2c(=S)c3ccccc3[nH]c2c1`: the TGI in assay [1] was more than 52.7 µM; in assay [2], 53.7 µM; in [3], 48.4 µM; in assay [4], more than 50.1 µM; in assay [5], 13.4 µM; in [6], 56.6 µM. Also, the TGI is 41 µM in assay [7], 32.3 µM in assay [8], 35.3 µM in assay [9] and more than 53.6 µM in [10].
Take `Nc1nccc2c1ncn2C1OC(CO)C(O)C1O` (stereo not drawn): the GI50 in assay [1] is 52 µM; in [2], 89.3 µM; in assay [3] it was more than 100 µM; in [4], more than 100 µM; in assay [5] it was more than 100 µM; in assay [6] it was 48.5 µM. Further, the GI50 in assay [7], in assay [8], in [9] and in assay [10] was more than 100 µM throughout. Also, the TGI in assay [1], in assay [2], in assay [3], in [4], in [5] and in assay [6] was more than 100 µM in each case. The TGI in assay [7], in [8], in [9] and in [10] was more than 100 µM in each case.
Turning to `NCCCN1CCN(CCCNc2nc3ccccc3c3[nH]c4ccccc4c23)CC1`, the GI50 was 0.181 µM in assay [1]; 0.26 µM in assay [3]; 0.561 µM in assay [4]; 0.425 µM in assay [5]; 0.429 µM in assay [6]; 0.34 µM in [7]. Moreover, the GI50 is 0.387 µM in assay [8], 1.14 µM in assay [9] and 0.0715 µM in [10]. Also, the TGI was 1.33 µM in assay [1]; 1.05 µM in assay [2]; 1.08 µM in assay [3]; 6.85 µM in [4]; 3.26 µM in assay [5]; 1.31 µM in assay [6]. Also, the TGI stood at 2.07 µM in assay [7], 1.44 µM in [8], 2.53 µM in assay [9] and 43.1 µM in assay [10].
